The text below walks through data of a melting point compilation (Tetko et al.).

Structures are written as SMILES.

On to `CC(C)(C)n1ncc2c(=O)[nH]c(Cl)nc21`, for which the melting point (commonly the temperature, or range, at which the solid turns liquid) lay in the range of 191 to 193 °C. Next, `CCOc1cc(C(=O)N2CCCC(C(=O)O)C2)cc(OCC)c1OCC` (configuration not stated): 183 to 185 °C; `COC(=O)C(=CN(C)C)C(C)=O`: 47 to 49 °C. With `O=C(O)c1cc(-c2ccc(Cl)c(Cl)c2)ns1` the figure was 208 to 210 °C.

`NC(=O)c1cccnc1Sc1ccc(C(=O)O)cc1` showed a melting point of 257 to 259 °C. Next, `COC(=O)c1c[nH]c(C2CC2)n1`: 119 to 121 °C; `O=C(O)CCN1CCSC1=O`: 91 to 93 °C; `Cc1cc(C)cc(CCC(=O)O)c1`: 49 to 51 °C. Next, `O=C1OC(C(=O)O)Cc2ccccc21` (configuration not stated): 151 to 153 °C; `c1ccc2c(c1)nc1n2CCN1`: 194 to 206 °C; `O=C(O)COc1ccc2c3c(c(=O)oc2c1)CCC3`: 170 to 172 °C. Next, `CCOC(=O)c1cc(C#N)c(SCC(=O)O)[nH]c1=O`: 195 to 197 °C; `COc1cc(I)c(C(=O)O)cc1OC`: 200 to 202 °C. The molecule `CCc1cc(O)ncc1Br` had a melting point of 109 to 111 °C. Next, `Cn1cnc([N+](=O)[O-])c1Oc1ccc(Br)cc1`: 129 to 131 °C. With `Cc1cc(=O)c(C(=O)O)nn1-c1cccc(Cl)c1` the figure was 223 to 225 °C; with `Cc1[nH]c(-c2ccnc(Cl)c2)nc(=O)c1C`, 253 to 255 °C. With `O=C(O)C1CCCc2ccccc21` (configuration not stated) the figure was 84 to 86 °C; with `CC(Cl)C(=O)Nc1ccc(Cl)c(C(F)(F)F)c1` (configuration not stated), 130 to 135 °C; with `O=C(O)c1cc2c(OC(F)F)cccc2[nH]1`, 215 to 217 °C. For the molecule `O=C(O)CCc1nnc(-c2ccccc2I)o1`, the melting point lay within 84 to 86 °C.

With `NC(=O)c1c[nH]nc1-c1ccccc1`, the melting point was in the range of 187 to 189 °C. The molecule `NS(=O)(=O)c1ccc(CC(=O)O)s1` had a melting point of 128 to 130 °C. Next, `O=C(O)C1CC(=O)N(c2ccc(Br)cc2)C1` (configuration not stated): 173 to 175 °C; `CN1C(=O)CC(C(=O)O)C1c1ccc(Cl)c(F)c1` (configuration not stated): 225 to 227 °C. In turn, `Fc1ccc(-c2cc(CBr)on2)cc1` had a melting point of 74 to 76 °C. Next, `CN(C)C(=O)c1ccc(Cl)cc1N`: 65 to 67 °C; `O=C1CCc2c(F)cccc21`: 71 to 73 °C; `Nc1nnc(-c2cccc(Cl)c2)[nH]1`: 219 to 221 °C. Next, `Nc1nc2cc(Cc3ccccc3)ccc2o1`: 151 to 153 °C; `CSc1ccc(-c2nc(=N)s[nH]2)cc1`: 189 to 191 °C. Turning to `COc1ccc(CN)cc1NC(C)=O`, the melting point was in the range of 115 to 117 °C. Next, `COc1cccc(-n2c(C)nnc2SCC(=O)O)c1`: 130 to 132 °C.

`O=C(O)CC1CCC(c2ccccc2)CC1` (configuration not stated) displayed a melting point of 83 to 85 °C. With `CC1CN(C(CN)c2c(F)cccc2F)CC(C)O1` (configuration not stated) the figure was 59 to 61 °C; with `Nc1ccc(S(=O)(=O)NCc2ccc(Cl)cc2)cc1`, 174 to 176 °C.

Molecule `CC1CC(C)CN(S(=O)(=O)c2ccc(C(=O)O)cc2)C1` (configuration not stated) displayed a melting point of 275 to 277 °C.

Consider `CCOC(=O)c1cn2c(Br)ccc2cn1`, for which the melting point is 138 to 140 °C.

On to `O=C1CC(CO)CN1CCc1ccccc1` (configuration not stated), for which the melting point fell in the range of 65 to 67 °C. Next, `CC(=O)Nc1cc(C(=O)CCl)ccc1O`: 188 to 190 °C; `Cn1cc(C2CC2C(=O)O)cn1` (configuration not stated): 138 to 140 °C. With `O=c1ccc([N+](=O)[O-])cn1CCCl` the figure was 130 to 132 °C; with `O=C1CCNc2ccc(F)cc2N1`, 147 to 149 °C. Next, `Cc1ccc(NC(N)=S)cc1C`: 184 to 186 °C. `CC1(C)Cc2cccc(OCC(=O)O)c2O1` returned a melting point of 111 to 113 °C. Next, `O=C(O)CSc1nnnn1CC(F)(F)F`: 135 to 137 °C; `Cc1nn2c(C=O)c(C(C)C)nc2s1`: 40 to 42 °C.
